Reference: patent US11058702B2 (EMEK, Inc., priority 2014, dated 2021)
Where two headings read alike, the source gives them in different places.

Assays:
[1] = tested on: cellular DNA of tumor and normal rectal mucosa; conditions: cited from earlier work
[2] = tested on: cellular DNA of tumor and normal rectal mucosa; experiment: Clinical trial of ci BUdR in locally advanced cervical cancer: DNA incorporation; type: in vivo, human
[3] = tested on: high-grade primary brain tumors; conditions: cited from earlier work; for Median survival (Months): RT + IUdR
[4] = tested on: cellular DNA of tumor and normal tissues; experiment: Clinical Phase I/II trials of ci IUdR + RT: % IUdR-DNA cellular incorporation, plasma level, toxicity; type: in vivo, human
Experimental: In the prior clinical Phase I and II trials of continuous intravenous infusions of IUdR+RT for high-grade gliomas (Table 1), high-grade sarcomas (Table 2), in patients with liver metastases for colorectal cancer, and in patients with head and neck cancers, the % IUdR-DNA cellular incorporation was measured in tumor tissue as well as normal tissues, including normal liver and in circulating blood cells (granulocytes).

in vivo = experiment: in vivo
Experimental: No further dose escalations were used because of the increased risk of pulmonary aspiration with larger drug volumes (≥2000 mg/kg/d).

[5] = tested on: human bladder and cervical cancer cells; conditions: cited from earlier work
high-grade sarcomas = conditions: cited from earlier work
[6] = IV or IA IUdR; cited from earlier work
[7] = tested on: human bladder cancer cell line; conditions: IUdR for 48 hours prior to one-hour exposure to cisplatin; cited from earlier work
[8] = tested on: cellular DNA of tumor and normal tissues; conditions: cited from earlier work
[9] = IV IUdR

## O=c1[nH]c(=O)n([C@H]2C[C@H](O)[C@@H](CO)O2)cc1Br [BUdR, bromodeoxyuridine]
[1]; ci BUdR 1000 mg/M^2/day×4 days, Day 5
  tumor cell IUdR-DNA incorporation: 5-8%
[1]; ci BUdR
  IUdR-DNA incorporation in adjacent normal rectal mucosa cells: 3-4%
[2]
  ratio of tumor to rectum: 1.5-1.8 fold

## O=c1[nH]c(=O)n([C@H]2C[C@H](O)[C@@H](CO)O2)cc1I [IUdR, 5-iodo-2′-deoxyuridine]
[3]; Anaplastic astrocytomas (Grade 3 of 4), RT alone 24
  Median survival (Months): 39 Months
[3]; Glioblastoma Multiforme (Grade 4 of 4), RT alone 9
  Median survival (Months): 15 Months
[3]; ci IUdR+RT
  prolongation of survival compared to RT alone: greater than 50%
[4]; ci IUdR 1000 mg/M^2, H&N SCC
  DNA-replacement/day: 1.3%
[4]; from % IUdR-DNA incorporation at grade 3 or 4 toxicities
  TI of ci IUdR in the clinical studies: ~1
In vivo; ci IUdR 100 mg/kg/d, by day 6
  weight loss: ≥ 20%
In vivo; ci IUdR×6-14 days, xenograft studies
  GI toxicity, body weight loss: > 20%
In vivo; mouse, in vivo, po, 250 mg/kg/d
  MTD at 4 days: 250 mg/kg/day
[5]; IUdR (2 μM) + hydroxyurea
  radiation sensitizer enhancement: approximately 1.75
[5]; IUdR (2 μM) + non-cytotoxic doses of hydroxyurea
  increase in IdUTP pools and IUdR-DNA incorporation: 2 fold
high-grade sarcomas; High grade sarcomas (resectable), RT + IUdR + Surgery, RT + Surgery 25%
  Local Control at 2 years: 45%
high-grade sarcomas; High grade sarcomas (un-resectable), RT + IUdR, RT alone <10%
  Local Control at 2 years: 60%
[6]
  plasma half-life: < 5 min
[7]
  dose-modifying factors at 10% survival: up to 3.5
[8]; 5-7 day ci IUdR infusion, locally advanced head & neck cancers
  % IUdR-DNA levels: > 5%
[8]; ci IUdR 1000 mg/M^2, within 5 days, H&N SCC
  IUdR-DNA tumor cell levels (plateau): 7.5-8%
[8]; ci IUdR exposure that produced clinical responses
  steady state plasma concentration: 1 µM
[8]; ci IUdR+RT, locally advanced head & neck cancers
  local control: high local control rate
[8]; ci IUdR
  % IUdR-DNA levels in peripheral granulocytes that predicted systemic bone marrow toxicity: 6%
  plasma level of IUdR to achieve >3% IUdR-DNA cellular incorporation: > 1 µM
[8]; human, in vivo
  threshold of % IUdR-DNA tumor cell incorporation associated with in vivo radiosensitization: ≥ 3%
  toxicities of prolonged ci of IUdR: myelosuppression and acute GI toxicities
[8]; patients with head and neck cancers or liver metastases from colorectal cancer
  % IUdR-DNA cellular incorporation in tumors: 5-8%
[8]; patients with liver metastases
  % IUdR-DNA cellular incorporation in adjacent normal liver tissue: less than 1%
[9]
  LD50: never reached
